Among the data in patent publication US9770445B2, “Sulfoximine substituted 5-fluoro-N-(pyridin-2-yl)pyridin-2-amine derivatives and their use as CDK9 kinase inhibitors” (BAYER PHARMA AKTIENGESELLSCHAFT, priority 2013, dated 2017) are IC50 values, retold here.

Assay [1] deals with HeLa, human cervical tumour cells. Kind of assay: Proliferation assay, HeLa (crystal violet). The format is cell-based. The note with it: 96 h, 4 days, read-out: Inhibition of HeLa cell proliferation. The protocol:
(§1) Cultivated tumour cells (HeLa, human cervical tumour cells, ATCC CCL-2; NCI-H460, human non-small cell lung carcinoma cells, ATCC HTB-177; A2780, human ovarian carcinoma cells, ECACC #93112519; DU 145, hormone-independent human prostate carcinoma cells, ATCC HTB-81; HeLa-MaTu-ADR, multidrug-resistant human cervical carcinoma cells, EPO-GmbH Berlin; Caco-2, human colorectal carcinoma cells, ATCC HTB-37; B16F10, mouse melanoma cells, ATCC CRL-6475) were plated at a density of 5,000 cells/well (DU145, HeLa-MaTu-ADR), 3,000 cells/well (NCI-H460, HeLa), 2,500 cells/well (A2780), 1,500 cells/well (Caco-2), or 1,000 cells/well (B16F10) in a 96-well multititer plate in 200 μL of their respective growth medium supplemented 10% fetal calf serum. After 24 hours, the cells of one plate (zero-point plate) were stained with crystal violet (see below), while the medium of the other plates was replaced by fresh culture medium (200 μl), to which the test substances were added in various concentrations (0 μM, as well as in the range of 0.001-10 μM; the final concentration of the solvent dimethyl sulfoxide was 0.5%). The cells were incubated for 4 days in the presence of test substances. Cell proliferation was determined by staining the cells with crystal violet: the cells were fixed by adding 20 μl/measuring point of an 11% glutaric aldehyde solution for 15 minutes at room temperature. After three washing cycles of the fixed cells with water, the plates were dried at room temperature. The cells were stained by adding 100 μl/measuring point of a 0.1% crystal violet solution (pH 3.0). After three washing cycles of the stained cells with water, the plates were dried at room temperature. The dye was dissolved by adding 100 μl/measuring point of a 10% acetic acid solution. The extinction was determined by photometry at a wavelength of 595 nm. The change of cell number, in percent, was calculated by normalization of the measured values to the extinction values of the zero-point plate (=0%) and the extinction of the untreated (0 μm) cells (=100%). The IC50 values (inhibitory concentration at 50% of maximal effect) were determined by means of a 4 parameter fit.

Assay [2] relates to HeLa-MaTu-ADR, multidrug-resistant human cervical carcinoma cells. Kind of assay: Proliferation assay, HeLa-MaTu-ADR (crystal violet). The note with it: 96 h, 4 days, read-out: Inhibition of HeLa-MaTu-ADR cell proliferation. The format is cell-based. The protocol:
as §1

Assay [3] concerns B16F10, mouse melanoma cells. Kind of assay: Proliferation assay, B16F10 (crystal violet). The class given is cell-based. Particulars: B16-F10, 96 h, B16F10, 4 days, read-out: Inhibition of B16F10 cell proliferation. The protocol:
as §1

For assay [4], the system named is Caco-2, human colorectal carcinoma cells. Kind of assay: Proliferation assay, Caco-2 (crystal violet). The class given is cell-based. Particulars: 96 h, Caco-2, 4 days, read-out: Inhibition of Caco-2 cell proliferation. The protocol: as §1
For assay [5], the system named is NCI-H460, human non-small cell lung carcinoma cells. Kind of assay: Proliferation assay, NCI-H460 (crystal violet). The class given is cell-based. Particulars: 96 h, NCI-H460, 4 days, read-out: Inhibition of NCI-H460 cell proliferation. The protocol:
as §1

Assay [6] relates to DU 145, hormone-independent human prostate carcinoma cells. Kind of assay: Proliferation assay, DU145 (crystal violet). The note with it: DU-145, 96 h, DU145, 4 days, read-out: Inhibition of DU145 cell proliferation. The format is cell-based. As to the method:
as §1

Assay [7] has as its system A2780, human ovarian carcinoma cells. The assay can be described thus: Proliferation assay, A2780 (crystal violet). The class given is cell-based. The note with it: 96 h, A2780, 4 days, read-out: Inhibition of A2780 cell proliferation. The protocol: as §1, with “The IC50 values (inhibitory concentration at 50% of maximal effect) were determined by means of a 4 parameter fit.” left out

In another assay the target is T1, CDK2/CycE (Homo sapiens, UniProt P24941).
T1 construct: GST; purchased ProQinase GmbH (Freiburg, Germany); host or cells: insect cells (Sf9)
Kind of assay: CDK2/CycE kinase assay (Method 2, TR-FRET). The format is biochemical. Particulars: Method 2, 10 μM ATP. The text has this:
2. CDK2/CycE Kinase Assay:
CDK2/CycE-inhibitory activity of compounds of the present invention was quantified employing the CDK2/CycE TR-FRET assay as described in the following paragraphs:
Recombinant fusion proteins of GST and human CDK2 and of GST and human CycE, expressed in insect cells (Sf9) and purified by Glutathion-Sepharose affinity chromatography, were purchased from ProQinase GmbH (Freiburg, Germany). As substrate for the kinase reaction biotinylated peptide biotin-Ttds-YISPLKSPYKISEG (C-terminus in amid form) was used which can be purchased e.g. form the company JERINI Peptide Technologies (Berlin, Germany).
For the assay 50 nl of a 100 fold concentrated solution of the test compound in DMSO was pipetted into a black low volume 384 well microtiter plate (Greiner Bio-One, Frickenhausen, Germany), 2 μl of a solution of CDK2/CycE in aqueous assay buffer [50 mM Tris/HCl pH 8.0, 10 mM MgCl2, 1.0 mM dithiothreitol, 0.1 mM sodium ortho-vanadate, 0.01% (v/v) Nonidet-P40 (Sigma)] were added and the mixture was incubated for 15 min at 22° C. to allow pre-binding of the test compounds to the enzyme before the start of the kinase reaction. Then the kinase reaction was started by the addition of 3 μl of a solution of adenosine-tri-phosphate (ATP, 16.7 μM=>final conc. in the 5 μl assay volume is 10 μM) and substrate (1.25 μM=>final conc. in the 5 μl assay volume is 0.75 μM) in assay buffer and the resulting mixture was incubated for a reaction time of 25 min at 22° C. The concentration of CDK2/CycE was adjusted depending of the activity of the enzyme lot and was chosen appropriate to have the assay in the linear range, typical concentrations were in the range of 130 ng/mL. The reaction was stopped by the addition of 5 μl of a solution of TR-FRET detection reagents (0.2 μM streptavidine-XL665 [Cisbio Bioassays, Codolet, France] and 1 nM anti-RB(pSer807/pSer811)-antibody from BD Pharmingen [#558389] and 1.2 nM LANCE EU-W1024 labeled anti-mouse IgG antibody [Perkin-Elmer, product no. AD0077]) in an aqueous EDTA-solution (100 mM EDTA, 0.2% (w/v) bovine serum albumin in 100 mM HEPES/NaOH pH 7.0).
The resulting mixture was incubated 1 h at 22° C. to allow the formation of complex between the phosphorylated biotinylated peptide and the detection reagents. Subsequently the amount of phosphorylated substrate was evaluated by measurement of the resonance energy transfer from the Eu-chelate to the streptavidine-XL. Therefore, the fluorescence emissions at 620 nm and 665 nm after excitation at 350 nm was measured in a TR-FRET reader, e.g. a Rubystar (BMG Labtechnologies, Offenburg, Germany) or a Viewlux (Perkin-Elmer). The ratio of the emissions at 665 nm and at […] was taken as the measure for the amount of phosphorylated substrate. The data were normalised (enzyme reaction without inhibitor=0% inhibition, all other assay components but no enzyme=100% inhibition).

Molecules are shown by their SMILES.

Consider `CS(=N)(=O)Cc1ccnc(Nc2cc(-c3ccc(F)c4ccoc34)c(F)cn2)c1` (racemic) [Example 5, (rac)-5-Fluoro-4-(4-fluoro-1-benzofuran-7-yl)-N-{4-[(S-methylsulfonimidoyl)methyl]pyridin-2-yl}pyridin-2-amine], for which the IC50 in assay [1] was 31 nM; in assay [2], 42 nM; in assay [3], 53 nM; in assay [4], 46 nM; in assay [5], 120 nM; in assay [6], 55 nM. Also, the results for the IC50 (in assay [7]; against CDK2/CycE) were 29 nM and 130 nM, respectively.
In the case of `CS(=N)(=O)Cc1cc(F)nc(Nc2cc(-c3ccc(F)c4ccoc34)c(F)cn2)c1` (racemic) [Example 1, (rac)-5-Fluoro-4-(4-fluoro-1-benzofuran-7-yl)-N-{6-fluoro-4-[(S-methylsulfonimidoyl)methyl]pyridin-2-yl}pyridin-2-amine], the IC50 turned out to be 30 nM in assay [1]; 30 nM in assay [2]; 41 nM in assay [3]; 34 nM in assay [4]; 36 nM in assay [5]; 33 nM in assay [6]. Besides, the results for the IC50 (in assay [7]; against CDK2/CycE) were 11 nM and 42 nM, respectively.
